In PMC8004375, “Pharmacokinetic Study of Safrole and Methyl Eugenol after Oral Administration of the Essential Oil Extracts of Asarum in Rats by GC-MS” (BioMed Research International, 2021):

Experiments:
[1] = Pharmacokinetic study in rat plasma after oral administration of Asarum essential oil extracts (GC-MS); type: in vivo, Sprague–Dawley rats; conditions: oral Asarum extracts 20 g/kg; for MRT / Cmax / half-life / AUC(0-inf) / AUC(0-t) / Tmax / MRT last / MRT inf: male, Sprague-Dawley, in vivo; for MRT: 0−t or 0−∞ not specified, read-out: mean residence time; for Cmax: as stated in text without unit; for half-life: elimination half-life; for half-life / AUC(0-inf) / AUC(0-t) / Tmax / MRT last / MRT inf: n = 6, mean ± SD; for MRT last: read-out: MRT(0 − t); for MRT inf: read-out: MRT(0 − ∞)
Experimental: The GC–MS system (Shimadzu GC-MS QP-2010 Ultrasystem) was coupled with an AOC-20i autosampler. The column used was a DB-17 capillary column (30 m × 0.25 mm × 0.25 μm film thickness). 99.99% high purity Helium was used as the carrier gas with a flow rate of 1.3 mL/min. The column temperature was programmed as follows: initial temperature 90°C, 20°C/min to 106°C, 30°C/min to 136°C, 40°C/min to 210°C, and finally 5.5°C/min to 214°C. The injection volume was 1 μL, and the injection temperature was 250°C.
The MS data were acquired in the electron-impact mode, and the SIM mode was used for quantification. The three characteristic ions of safrole were 162.0, 131.0, and 104.0 and that of methyl eugenols were 178.0, 163.0, and 147.0 (ions in bold fonts were used for the quantification). The transfer line temperature was set at 250°C, and the ionization source temperature was set at 230°C. The total run time was 4.5 min with a solvent delay of 3 min.
100 μL plasma sample was incorporated with 10 μL n-hexane and 10 μL of IS (5 μg/mL) and vortexed for 30 seconds. 130 μL n-hexane was then added to the sample and vortex-mixed for 5 min. The samples were centrifuged (12,000 × g, 10 min, 4°C), and […] was injected for GC-MS analysis.
All animal protocols were approved by the Laboratory Animal Ethics Committee of Tianjin University Traditional Chinese Medicine (TCM-LAEC20190059). Six male Sprague–Dawley rats (body weight 240 ± 10 g) were fasted for 12 h prior to the study, with free access to water. The Asarum extracts were administered to rats orally at a dose of 20 g/kg. 0.5% CMC-Na aqueous solution was used to dissolve the Asarum extracts to a concentration of 2 g/mL suspension and stored at 4°C. Approximately 220 μL blood samples were collected from the suborbital vein into centrifuge tubes at 0, 0.08, 0.17, 0.5, 1, 2, 4, 6, 8, 10, 12, 24, 36, 48, and 60 h postadministration in rats. The plasma was separated by centrifugation at 4000 × g for 10 min immediately and frozen at -80°C until the time of analysis. The main program pharmacokinetic parameters were processed by Drug and Statistics 3.0 (Medical College of Wannan, China).

[2] = Stability of analytes in rat plasma (QC samples); type: in vitro ADME; conditions: for Stability in plasma samples: all conditions studied: room temperature 4 h, three freeze-thaw cycles, auto-sampler 12 h, -80°C 7 days; for Measured concentration, three freeze-thaw cycles / Measured concentration, -80°C for 7 days / Measured concentration, auto-sampler for 12 h / Measured concentration, room temperature for 4 h: rat plasma, n = 6; for Measured concentration, three freeze-thaw cycles: freeze -20°C
Experimental: The stability was evaluated under different condition with variable time and temperature including long-term stability (storing the QC samples at -80°C for 7 days), short-term stability (storing the QC samples at room temperature for 4 h), freeze/thaw stability (three freeze (-20°C) thaw cycles), and auto-sampler stability (incubating the spiked samples for 12 h in auto-sampler).

[3] = International Agency for Research on Cancer classification; cited from earlier work
[4] = high QC (spiked 12000 ng/mL safrole, 8000 ng/mL methyl eugenol)
[5] = low QC (spiked 120 ng/mL safrole, 80 ng/mL methyl eugenol)
[6] = medium QC (spiked 1200 ng/mL safrole, 800 ng/mL methyl eugenol)

`C=CCc1ccc(OC)c(OC)c1` [Methyl eugenol] gave an MRT [1] of 10.6 ± 0.63 h, a Cmax [1] of 823 ± 124 ng/mL and a half-life [1] of 220 ± 96 min. It also gave an AUC(0-inf) [1] of 15300 ± 2790 ng·h/mL, an AUC(0-t) [1] of 15200 ± 2760 ng·h/mL and a Tmax [1] of 6.67 ± 2.07 h. The MRT last [1] was 10.6 ± 0.63 h, the MRT inf [1] was 10.6 ± 0.63 h and the completely metabolised after [1] was 36 h. The “Stability in plasma samples” value [2] was “stable”, the “Measured concentration, three freeze-thaw cycles” value [2, 4] was 7287.0 ± 522.7 ng/mL and the “Measured concentration, -80°C for 7 days” value [2, 4] was 7367.9 ± 638.7 ng/mL. For the same molecule, the “Measured concentration, auto-sampler for 12 h” value [2, 4] was 7100.8 ± 230.4 ng/mL, the “Measured concentration, room temperature for 4 h” value (“Measured concentration … for 4 h” below) [2, 4] was 7418.6 ± 62.9 ng/mL and the “Measured concentration, three freeze-thaw cycles” value [2, 5] was 78.5 ± 6.5 ng/mL. For the same molecule, the “Measured concentration, -80°C for 7 days” value [2, 5] was 81.0 ± 5.2 ng/mL, the “Measured concentration, auto-sampler for 12 h” value [2, 5] was 73.9 ± 6.1 ng/mL and the “Measured concentration … for 4 h” value [2, 5] was 89.6 ± 8.8 ng/mL. The “Measured concentration, three freeze-thaw cycles” value [2, 6] was 708.5 ± 16.2 ng/mL, the “Measured concentration, -80°C for 7 days” value [2, 6] was 749.8 ± 40.7 ng/mL and the “Measured concentration, auto-sampler for 12 h” value [2, 6] was 727.7 ± 6.0 ng/mL. The “Measured concentration … for 4 h” value [2, 6] was 751.7 ± 7.8 ng/mL and the IARC carcinogen group [3] was “group 2B carcinogen”.

In the case of `C=CCc1ccc2c(c1)OCO2` [Safrole], the MRT [1] is reported as 18.4 ± 0.64 h, the Cmax [1] is reported as 1980 ± 267 ng/mL and the half-life [1] is reported as 146 ± 163 min. It also gave an AUC(0-inf) [1] of 53000 ± 5260 ng·h/mL, an AUC(0-t) [1] of 53000 ± 5290 ng·h/mL and a Tmax [1] of 13 ± 1.1 h. The MRT last [1] was 18.4 ± 0.64 h, the MRT inf [1] was 18.4 ± 0.63 h and the “detectable in plasma samples after” value [1] was 48 h. The “Stability in plasma samples” value [2] was “stable”, the “Measured concentration, three freeze-thaw cycles” value [2, 4] was 12526.3 ± 331.5 ng/mL and the “Measured concentration, -80°C for 7 days” value [2, 4] was 12741.7 ± 103.1 ng/mL. For the same molecule, the “Measured concentration, auto-sampler for 12 h” value [2, 4] was 12065.2 ± 210.7 ng/mL, the “Measured concentration … for 4 h” value [2, 4] was 12751.7 ± 38.6 ng/mL and the “Measured concentration, three freeze-thaw cycles” value [2, 5] was 137.0 ± 10.6 ng/mL. For the same molecule, the “Measured concentration, -80°C for 7 days” value [2, 5] was 135.1 ± 11.0 ng/mL, the “Measured concentration, auto-sampler for 12 h” value [2, 5] was 136.3 ± 11.8 ng/mL and the “Measured concentration … for 4 h” value [2, 5] was 132.5 ± 12.4 ng/mL. The “Measured concentration, three freeze-thaw cycles” value [2, 6] was 1319.7 ± 21.2 ng/mL, the “Measured concentration, -80°C for 7 days” value [2, 6] was 1348.1 ± 41.4 ng/mL and the “Measured concentration, auto-sampler for 12 h” value [2, 6] was 1271.1 ± 3.3 ng/mL. For the same molecule, the “Measured concentration … for 4 h” value [2, 6] was 1306.7 ± 15.7 ng/mL and the IARC carcinogen group [3] was “group 2B carcinogen”.
